These results are taken from patent publication US11603380B2 (Centre national de la recherche scientifique, priority 2018, dated 2023).

This experiment relates to varicella-zoster virus (VZV) TK− (07/1). The experiment in a line: microbe, parasite or virus in culture. Type of experiment: cell-based. The following applies: read-out: EC50 VZV TK− (07/1).
`CCCCCCCCCCCCCCCCOCCCOP(=O)(CC=C(COC(C)=O)COc1cc(Cl)nc(N)n1)OCOC(=O)OC(C)C` (mixture of isomers) [Compound (8), [(E/Z)-2′-[(2-amino-6-chloro-pyrimidin-4-yl)oxymethyl]-4-[3-hexadecoxypropoxy(isopropoxycarbonyloxymethoxy)phosphoryl]but-2′-enyl]acetate]: the EC50 is over 20 µM. As for `CCCCCCCCCCCCCCCCOCCCOP(=O)(C/C=C/COc1cc(N)nc(N)n1)OCOC(=O)OC(C)C` (stereo not drawn) [Compound (2), [[(E)-4-(2,6-diaminopyrimidin-4-yl)oxybut-2′-enyl]-(3-hexadecoxypropoxy)phosphoryl]oxymethyl isopropyl carbonate], the EC50 came to 0.24 µM.

Turning to “[(E/Z)-2-[[2-[bis(tert-butoxycarbonyl)amino]-6-methoxy-pyrimidin-4-yl]oxymethyl]-4-[3-hexadecoxypropoxy(isopropoxycarbonyloxymethoxy)phosphoryl]but-2′-enyl]acetate [Compound (7)]”, the EC50 was over 20 µM.
